# According to patent US20260216220A1, “TREATMENT OF MYELOPEROXIDASE-POSITIVE ANCA-ASSOCIATED VASCULITIS WITH H2S RELEASING COMPOUNDS” (DEBRECENI EGYETEM, priority 2022, published 2026):
# Where two headings read alike, the source gives them in different places.
# Legend:
# [1] = tested on: mouse model of MPO-ANCA vasculitis; assay: ANCA vasculitis mouse model (anti-MPO splenocyte transfer into Rag2−/− mice), kidney histology; type: in vivo; settings: ATB 60 μmol/kg, administered orally (per os)
# Procedure: MPO knockout mice were immunized with mouse MPO based on the following protocol. On day 1 200 μl of 20 μg murine MPO (mMPO) or BSA in total with Complete Freud's Adjuvant were injected to MPO KO mice. 30-40 μl were injected to the backfoot footpads and 120-160 μl were injected subcutaneously in the abdominal region. On day 14 20 μg mMPO/BSA were injected IP with incomplete Freud's Adjuvant and on day 28 mice were boosted with 20 μg mMPO/BSA in DPBS buffer IP. 10 days after boost blood was drawn from eye corner under isoflurane anesthesia and antibody titers were checked by anti-MPO ELISA. If titer were low mice were boosted again with 20 μg mMPO or BSA and titer were checked again 7 days later. If titers were appropriate mice were terminated and splenocytes were isolated. […] The remaining red blood cells were lysed with Red Blood Cell Lysis Buffer according to manufacturer's instructions. […] Cells were counted using trypan blue solution, the total cell count varied between 3×10^7 and 6×10^7. Splenocytes derived from 1 mouse were injected into 2 Rag2−/− immunodeficient mice intravenously. […] After 4 weeks antibody titers were checked with anti-MPO ELISA. […]
# The percentage of affected glomeruli in treated samples were calculated compared to their control pairs.
# [2] = tested on: neutrophils; settings: cited from earlier work
# [3] = tested on: neutrophils; assay: Neutrophil phagocytosis of fluorescent Escherichia coli K-12 BioParticles (Vybrant kit); type: cell-based, human; settings: GYY4137 10-100 μM, 2 hours
# Procedure: Phagocytosis experiments were carried out with the Vybrant™ Phagocytosis Assay Kit based on manufacturers instruction. Briefly, Fluorescent-labeled Escherichia coli K-12 BioParticles, and trypan blue stock solutions were prepared. […] 1 hour or 5 minutes prior to the addition of the fluorescent BioParticles suspension. After 2 hours the BioParticle solution was removed, 100 μl trypan blue solution was added immediately, and incubated for 1 minute at room temperature. Trypan blue was removed and 100 μl HBSS was added to each well. Fluorescence was measured at the excitation and emission wavelengths of 480 and 520 nm respectively. Samples for microscopy analysis were prepared similarly with the cell number of 2×10^5/well in EZ slide chamber slides.
# [4] = tested on: PMA activated neutrophils
# [5] = tested on: PMA-activated neutrophils
# [6] = tested on: neutrophils; settings: cited from earlier work; remark: listed apart in the source
# [7] = upon PMA and bacterial activation
compound,measurement,setting,value
COc1ccc2cc(C(C)C(=O)Oc3ccc(C(N)=S)cc3)ccc2c1 (stereo not drawn) [ATB346],efficacy on kidney damage in ANCA mouse model,[1],nor proved to be beneficial in reducing kidney damage
same,efficacy on kidney damage in ANCA mouse model,[1]; listed as ATB,proved to be inefficient
N[C@@H](CS)C(=O)O [cysteine],neutrophil apoptosis,[2]; [7],inhibited neutrophil apoptosis
same,oxidative burst,[2]; [7],promoted oxidative burst
C=C1[C@@H](C)[C@H]2[C@H](Cc3ccccc3)NC(=O)[C@]23[C@H](OC(C)=O)/C=C/[C@@](C)(O)C(=O)[C@@H](C)C/C=C/[C@H]3[C@@H]1O [cytochalasin D],phagocytosis of E. coli Bioparticles (fluorescent microscopy),[3],inhibited
C=CCSSCC=C [diallyl-disulfide],neutrophil apoptosis,[2]; [7],inhibited neutrophil apoptosis
same,oxidative burst,[2]; [7],promoted oxidative burst
C=CCSSSCC=C [diallyl-trisulfide],neutrophil apoptosis,[2]; [7],inhibited neutrophil apoptosis
same,oxidative burst,[2]; [7],promoted oxidative burst
sodium sulfide,H2O2 production by PMA-activated neutrophils (FOX assay),[4],not affected
same,neutrophil apoptosis,[2],inhibited neutrophil apoptosis
same,oxidative burst,[2],promoted oxidative burst
same,"β-glucuronidase activity in supernatants (degranulation), PMA activation",[5],no effect on the enzymatic activity
same,killing of bacteria by neutrophils,[6],more efficient in killing bacteria
same,neutrophil apoptosis,[6],diminished neutrophil apoptosis
